Experimental data from patent publication US11446317B2, “Inositol phosphate-containing composition” (OTSUKA PHARMACEUTICAL CO., LTD., priority 2017, dated 2022).
Several values for one entry are separate records, joined by “and”; a condition that tells them apart may be missing. Identical values can stand only once.

Key:
[1] = system: healthy adults; assay: Low intake test (12 weeks, 1 bottle per day) in healthy adults; assay type: in vivo, human; conditions: for change in serum iron level: low intake test
Experimental: Subjects (39 healthy adults: 20 to 65 years of age, 13 men, premenopausal women, and 13 postmenopausal women) ingested 1 bottle of a test beverage per day for 12 weeks. The test beverage contains 600 mg of phytic acid per bottle (50 mL). Before and 4 weeks, 8 weeks, 12 weeks, and 14 weeks (i.e. 2 weeks after the last intake) after the start of the intake, blood of fasting was collected. The collected blood was measured for each test item by an analysis contractor. Tests for each endpoint compared to 0 week were performed with a paired t-test. Two-sided test was performed with a significance level of 5%.

[2] = molecular target: xanthine oxidase; conditions: Non-Patent Document 4, cited from earlier work
[3] = system: healthy adults; assay: High intake test (5 weeks, 3 to 5 bottles per day) in healthy adults; assay type: in vivo, human; conditions: for change in serum iron level: high intake test
Experimental: The subjects (48 healthy adults: 20 to 65 years of age, 16 men, 16 premenopausal women, and 16 postmenopausal women) ingested 5 bottles per day (or 3 to 5 bottles per day depending on the subject's capacity) of test beverage. The test beverage contains 600 mg of phytic acid per bottle (50 mL). The duration of intake was 5 weeks. The first week being a time period to determine each subject's tolerable volume of test beverage, during which time the subjects ingested test beverages while increasing one bottle daily (Up to 5 bottles per day). If 5 bottles/day could not be taken due to taste, volume, etc., the intake volume was determined by each subject, and the intake volume on day 7 was taken as the tolerable volume for each subject, and each subject ingested this tolerable volume (3 to 5 bottles per day) during the remaining study period (4 weeks). Before and 3 weeks, 5 weeks, and 7 weeks (i.e. 2 weeks after the last intake) after the start of the intake, blood pressure of fasting was measured and blood of fasting was collected. The collected blood was measured for each test item by an analysis contractor. Tests for blood pressure, blood glucose, AST, and serum iron compared to 0 week were performed with a paired t-test, and tests for 1, 25-(OH)2-D compared to 0 week were performed with one-way ANOVA followed by Dunnet's multiple comparison method. A two-sided test was performed with a significance level of 5%. The analysis included 44 subjects excluding 2 subjects who withdrew their consent and 2 subjects who were unable to take more than 3 bottles of the test beverage.

[4] = molecular target: T1, Phosphatase, Alkaline, Calf Intestine (Bos taurus, UniProt P19111); assay: Alkaline phosphatase inhibition (IMP to inosine); assay type: biochemical; conditions: sample solution 10 mg/mL, pH 6.2 to 6.4, 37° C. 30 minutes
T1 construct: purchased Merck
Experimental: Phosphatase, Alkaline, Calf Intestine (Merck) dissolved in the assay buffer (2.37% aqueous solution of Trizma® maleate (Sigma-Aldrich)) at 5.0 U/mL was used as the enzyme solution.
Inosine monophosphate (IMP) (Sigma-Aldrich) dissolved in the assay buffer at 9 mM was used as the substrate solution.
Phytic acid and the assay buffer were mixed, and the pH was adjusted to 6.2 to 6.4 with sodium hydroxide to obtain a sample solution (10 mg/mL). The control solution was prepared by adjusting the assay buffer to pH 6.2 to 6.4 with sodium hydroxide.
(§1) Enzymatic reaction was performed using a 96 well plate (Thermo Fisher Scientific) in the following manner.
The sample solution or control solution (100 μL/well), the substrate solution (100 μL/well), and the enzyme solution (100 μL/well) were added, and the enzyme reaction was performed at 37° C. for 30 minutes. A 20 μL aliquot of the reaction solution was transferred to multi-screen FITS HV (Merck Millipore), and the reaction was stopped by adding the stop solution (0.33 M HClO4, 180 μl/well). Centrifuge (1080×g for 10 minutes at room temperature) was performed, and the filtrate was subjected to high performance liquid chromatography (HPLC) to determine the amounts of inosine monophosphate and inosine.
The analytical conditions of HPLC are shown below.
Detector: SPD-M 30 A (Shimadzu Corporation) […]

[5] = system: alkaline phosphatase and 5′nucleotidase (rat small intestine powder); assay: Purine nucleotide metabolism inhibition (IMP to inosine) using rat small intestine powder; assay type: biochemical; conditions: pH 6.2 to 6.4, 37° C. 30 minutes
Experimental: The rat small intestine powder contains alkaline phosphatase and 5′nucleotidase as the main digestive enzymes. The inhibition of metabolism of purine nucleotides to purine nucleosides by phytic acid was investigated.
A 100 mg/mL of solution of rat small intestine powder (Clare Japan, Inc.) in the assay buffer (2.37% aqueous solution of Trizma® maleate (Sigma-Aldrich)) was used as the enzyme solution. Inosine monophosphate (IMP) (Sigma-Aldrich) (9 mM) in the assay buffer was used as the substrate solution.
Phytic acid and the assay buffer were mixed, and the pH was adjusted to 6.2 to 6.4 with sodium hydroxide to obtain the sample solutions of each concentration. The control solution was prepared by adjusting the assay buffer to pH 6.2 to 6.4 with sodium hydroxide.
as §1
The sample solution or control solution (100 μL/well), the substrate solution (100 μL/well), and the enzyme solution (100 μL/well) were added, and the enzyme reaction was performed at 37° C. for 30 minutes. A 20 μL aliquot of the reaction solution was transferred to multi-screen HTS HV (Merck Millipore), and the reaction was stopped by adding the stop solution (0.33 M HClO4, 180 μL/well). […]

[6] = ingestion of 1,400 mg of sodium phytate (1,000 mg as phytic acid); cited from earlier work

T1 sequence (P19111 20-506): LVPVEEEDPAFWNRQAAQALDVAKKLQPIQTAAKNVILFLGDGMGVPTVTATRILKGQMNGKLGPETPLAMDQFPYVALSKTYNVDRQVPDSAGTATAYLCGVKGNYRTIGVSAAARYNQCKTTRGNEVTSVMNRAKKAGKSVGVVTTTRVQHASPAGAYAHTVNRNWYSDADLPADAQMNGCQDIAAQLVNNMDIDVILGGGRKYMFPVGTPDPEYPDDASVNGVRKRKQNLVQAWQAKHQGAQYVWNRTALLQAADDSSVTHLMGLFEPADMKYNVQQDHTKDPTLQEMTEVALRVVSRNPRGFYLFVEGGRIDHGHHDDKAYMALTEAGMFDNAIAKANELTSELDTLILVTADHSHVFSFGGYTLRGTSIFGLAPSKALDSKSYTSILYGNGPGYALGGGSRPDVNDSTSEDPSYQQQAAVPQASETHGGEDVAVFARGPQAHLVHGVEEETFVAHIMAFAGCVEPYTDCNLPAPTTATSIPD

O=P(O)(O)O[C@H]1[C@H](OP(=O)(O)O)[C@@H](OP(=O)(O)O)[C@H](OP(=O)(O)O)[C@@H](OP(=O)(O)O)[C@H]1OP(=O)(O)O [phytic acid]
change in HbA1c level ([1]; high HbA1c level group (5.5 or more at 0 week)): significant decrease
change in blood glucose level ([1]; high blood glucose level group (86 or more at 0 week)): significant decrease
change in serum iron level ([1]; high level group (132 or more at 0 week)): significant decreases
change in serum iron level ([1]; low level group (90 or less at 0 week)): significant rises
change in serum iron level ([1]; middle level group (90 to 132 at 0 week)): no large changes
IC50 of inhibition of xanthine oxidase activity (conversion of xanthine to uric acid) [2]: ~19.8 mg/mL
IC50 ([2]; read-out: IC50 of inhibition of xanthine oxidase activity (conversion of xanthine to uric acid)): ~30 mM
change in 1,25-(OH)2-D level ([3]; 5 weeks after ingestion compared with before ingestion): significant increase
change in diastolic blood pressure ([3]; high diastolic blood pressure group (86.3 or more at 0 week)): significant decrease
change in serum iron level ([3]; high level group (117 or more at 0 week)): significant decreases
change in serum iron level ([3]; low level group (79 or less at 0 week)): significant rises
change in serum iron level ([3]; middle level group (79 to 117 at 0 week)): no large changes
change in AST level ([3]; high level group (21 or more at 0 week), 3, 5, and 7 weeks compared with before ingestion): significant decreases
change in systolic blood pressure ([3]; high systolic blood pressure group (126 or more at 0 week)): significant decrease
change in diastolic blood pressure ([3]; low diastolic blood pressure group (73.8 or less at 0 week)): no change
change in AST level ([3]; low level group (17 or less at 0 week), 3 weeks compared with before ingestion, change not large): significant increase
change in systolic blood pressure ([3]; low systolic blood pressure group (115.5 or less at 0 week)): no change
change in diastolic blood pressure ([3]; middle diastolic blood pressure group (73.8 to 86.3 at 0 week)): no change
change in systolic blood pressure ([3]; middle systolic blood pressure group (115.5 to 126 at 0 week)): significant change but it was not large
inhibition of metabolism of inosine monophosphate to inosine by alkaline phosphatase [4]: inhibits the conversion of purine nucleotides into purine nucleosides
inhibition of metabolism of inosine monophosphate to inosine [5]: inhibits the conversion of purine nucleotides into purine nucleosides

O=P([O-])([O-])O[C@H]1[C@H](OP(=O)([O-])O)[C@H](OP(=O)([O-])[O-])[C@H](OP(=O)([O-])O)[C@@H](OP(=O)([O-])[O-])[C@@H]1OP(=O)([O-])O.[Na+].[Na+].[Na+].[Na+].[Na+].[Na+].[Na+].[Na+].[Na+] [sodium phytate]
blood phytic acid concentration at the maximum [6]: 0.12 mg/L and 0.181 μM
